Values after ≈ are worked out from the molar mass of the structure shown. Where a name gives a salt, the structure may show the parent alone.
What was measured:
A431 cancer cell = assay: Inhibition of cancer cell growth (sulforhodamine B); assay type: cell-based; details: for GI50: Homo sapiens, A-431, 48 h; for GI50 / A431 GI50: A431 cells, grown 2 days with compound, SRB staining; for inhibitory effect of cancer cell growth compared with standard material DP153035: A431, comparison drawn from Table 3
Experimental: A431 cancer cell was cultivated at 37° C. under an environment of 5% (v/v) CO2 employing RPMI 1640 medium containing 10% (v/v) fetal calf serum. […] The above cells was grown again for 2 days, and then, fixed with formalin solution (Sigma Chem. Co., U.S.A.) and washed with water. After that, the cells was dried in the atmosphere, stained with 0.1% (v/v) sulforhodamine B solution (Sigma Chem. Co., U.S.A.) for 30 min and wash with 1% (v/v) acetic acid aqueous solution. Then, dye attached to cells was extracted with 0.1M Tris-HCl (pH 8.0) and the absorbances of the remaining culture were measured at 520 nm by the aid of microplate reader. And then, the concentration of the compound by which cell growth is 50% inhibited was represented as GI50(s: Table 3).

[1] = target: T1, purified human EGFR kinase (Homo sapiens, UniProt P00533); assay: Inhibition of EGFR tyrosine kinase (P32-ATP, biotin-conjugated substrate); assay type: biochemical; details: for IC50: purified human EGFR kinase, 50 μM ATP, 30° C., 10 min
T1 construct: purchased Promega
T1 sequence (P00533 25-1210): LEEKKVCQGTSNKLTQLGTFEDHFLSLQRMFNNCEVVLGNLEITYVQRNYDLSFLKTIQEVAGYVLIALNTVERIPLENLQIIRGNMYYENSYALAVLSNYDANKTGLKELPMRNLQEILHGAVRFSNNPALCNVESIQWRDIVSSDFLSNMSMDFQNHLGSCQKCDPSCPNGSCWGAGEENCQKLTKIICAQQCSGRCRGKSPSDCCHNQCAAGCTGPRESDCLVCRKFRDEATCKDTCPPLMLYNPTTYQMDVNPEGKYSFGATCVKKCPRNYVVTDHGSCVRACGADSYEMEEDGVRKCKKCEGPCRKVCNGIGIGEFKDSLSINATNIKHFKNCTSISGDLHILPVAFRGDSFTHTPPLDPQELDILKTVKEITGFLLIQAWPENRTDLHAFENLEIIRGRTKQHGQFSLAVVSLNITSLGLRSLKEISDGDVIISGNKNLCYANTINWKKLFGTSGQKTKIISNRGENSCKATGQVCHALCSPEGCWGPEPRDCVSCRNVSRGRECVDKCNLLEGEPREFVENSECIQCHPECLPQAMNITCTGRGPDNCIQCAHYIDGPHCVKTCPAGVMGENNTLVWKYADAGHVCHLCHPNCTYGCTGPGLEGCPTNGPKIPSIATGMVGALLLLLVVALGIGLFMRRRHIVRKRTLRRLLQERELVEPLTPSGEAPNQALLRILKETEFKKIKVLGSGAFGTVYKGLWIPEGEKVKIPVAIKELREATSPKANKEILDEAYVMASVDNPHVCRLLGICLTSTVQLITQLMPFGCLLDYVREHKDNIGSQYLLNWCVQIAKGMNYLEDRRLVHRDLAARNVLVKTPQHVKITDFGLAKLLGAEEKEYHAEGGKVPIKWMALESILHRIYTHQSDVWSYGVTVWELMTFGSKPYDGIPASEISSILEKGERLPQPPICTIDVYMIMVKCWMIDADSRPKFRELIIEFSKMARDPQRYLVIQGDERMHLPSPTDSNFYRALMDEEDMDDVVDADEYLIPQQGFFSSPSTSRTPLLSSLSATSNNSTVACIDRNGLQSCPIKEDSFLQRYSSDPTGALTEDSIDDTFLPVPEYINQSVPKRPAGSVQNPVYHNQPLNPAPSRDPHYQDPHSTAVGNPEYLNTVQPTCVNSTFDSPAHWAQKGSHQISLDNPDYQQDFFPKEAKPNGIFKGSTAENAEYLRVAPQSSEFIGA
Experimental: The test was accomplished in a 20 μl reaction volume using 0.1 unit per reaction of purified human EGFR kinase (Promega, U.S.A.) and 50 μM biotin-conjugated substrate for tyrosine kinase (Promega, U.S.A.) and, 50 μM P^32-γ-ATP (0.2 μCi) and 20 mM Tris-HCl (pH 7.5) were employed as an ATP and a reaction solution, respectively. The test was carried out at 30° C. for 10 min, and terminated by the addition of 10 μl of 30% phosphate solution. The half of the reaction product was spotted onto avidin-layered PVDF membrane, which was then washed with 20 mM Tris-HCl (pH 8.0) and 0.2N NaCl aqueous solution for more than 2 hours.

[2] = Measurement of the solubility of compounds in water (HPLC calibration curve); assay type: physicochemical; details: supersaturated in 1 ml of water, centrifuged, supernatant by HPLC; for solubility thermodynamic: read-out: Solubility (mg/10 ml of water)
Experimental: That is, 1 mg of each of the above compounds was completely dissolved in 1 ml of DMSO, which was then subjected to HPLC employing C18 resin, and the peak area of chromatogram was calculated. And then, 1 mg of each of the same compound was dissolved in 10 ml of DMSO, which was then subjected to the same HPLC as the above to obtain a chromatogram, and the peak area was calculated therefrom. A solubility calibration curve was prepared by employing the above two data, and a linear function was deduced from that to complete a calibration curve (X axis: area, Y axis: logarithm value of concentration).
Each of the same compounds was supersaturated in 1 ml of water, which was then centrifuged at 14,000 rpm for 1 min. The precipitate was separated from the supernatant which was then subjected to the same HPLC as the above to obtain a chromatogram, and the peak area was calculated therefrom. The obtained value was substituted to the above calibration curve to measure the solubility by mg/10 ml of water (see: Table 1).

[3] = background statement; cited from earlier work

GI50 (A431 cancer cell) [µg/mL]	IC50 [1] [µM]	Compound	inhibitory effect of cancer cell growth compared with standard material DP153035 (A431 cancer cell)	further results
0.21 (≈ 0.535 µM)	0.0347	COCC1COc2cc3ncnc(Nc4cc(Cl)cc(Cl)c4)c3cc2O1 (centres unmarked) [Example 13, (3,5-dichlorophenyl)-(7-methoxymethyl-[1,4]-dioxano[2,3-g]quinazolin-4-yl)-amine]	better inhibitory effect of cancer cell growth than the standard material	solubility thermodynamic [2]: 8 µg/mL (≈ 20.4 µM)
0.24 (≈ 0.597 µM)	0.0355	COCC1COc2cc3ncnc(Nc4cccc(Br)c4)c3cc2O1 (centres unmarked) [Example 10, (3-bromophenyl)-(7-methoxymethyl-[1,4]-dioxano[2,3-g]quinazolin-4-yl)-amine]	better inhibitory effect of cancer cell growth than the standard material	solubility thermodynamic [2]: 241 µg/mL (≈ 599 µM)
2.37 (≈ 5.9 µM)	> 0.249	COC[C@H]1Oc2cc3ncnc(Nc4cccc(Cl)c4)c3cc2O[C@@H]1COC [Example 46, (7,8-bismethoxymethyl[1,4]dioxano[2,3-g]quinazolin-4-yl)-(3-chlorophenyl)-amine]	–	–
1.98 (≈ 5.25 µM)	0.00419	COCC1COc2cc3ncnc(Nc4cc(F)c(F)c(F)c4)c3cc2O1 (centres unmarked) [Example 18, (3,4,5-trifluorophenyl)-(7-methoxymethyl-[1,4]-ioxano[2,3-g]quinazolin-4-yl)-amine]	–	inhibitory effect on EGFR tyrosine kinase compared with standard material DP153035 ([1]; comparison drawn from Table 2): higher inhibitory effect than the standard material; solubility thermodynamic [2]: 45 µg/mL (≈ 119 µM)
0.43 (≈ 1.1 µM)	> 0.256	COCC1COc2cc3ncnc(Nc4cccc(C(F)(F)F)c4)c3cc2O1 (centres unmarked) [Example 12, (3-trifluoromethylphenyl)-(7-methoxymethyl-[1,4]-dioxano[2,3-g]quinazolin-4-yl)-amine]	better inhibitory effect of cancer cell growth than the standard material	solubility thermodynamic [2]: 74 µg/mL (≈ 189 µM)
0.06 (≈ 0.171 µM)	> 0.285	COCC1COc2cc3ncnc(Nc4cc(C)cc(C)c4)c3cc2O1 (centres unmarked) [Example 15, (3,5-dimethylphenyl)-(7-methoxymethyl-[1,4]-dioxano[2,3-g]quinazolin-4-yl)-amine]	better inhibitory effect of cancer cell growth than the standard material	–
0.6 (≈ 1.6 µM)	0.0977	COCC1COc2cc3ncnc(Nc4ccc(F)c(Cl)c4)c3cc2O1 (centres unmarked) [Example 17, (3-chloro-4-fluorophenyl)-(7-methoxymethyl-[1,4]-dioxano[2,3-g]quinazolin-4-yl)-amine]	better inhibitory effect of cancer cell growth than the standard material	–
–	0.0282	OCCNCC1COc2cc3ncnc(Nc4cccc(Br)c4)c3cc2O1 (centres unmarked) [Example 27, 2-[4-(3-bromophenylamine)-[1,4]dioxano[2,3-g]quinazolin-7-ylmethyl]amino-ethanol]	–	A431 GI50 (A431 cancer cell): 0.22 µg/mL

Second part, the compound before the results:

Compound	GI50 (A431 cancer cell) [µg/mL]	IC50 [1] [µM]	inhibitory effect of cancer cell growth compared with standard material DP153035 (A431 cancer cell)	further results
COC[C@H]1Oc2cc3ncnc(Nc4cccc(I)c4)c3cc2O[C@@H]1COC [Example 45, (7,8-bismethoxymethyl[1,4]dioxano[2,3-g]quinazolin-4-yl)-(3-iodophenyl)amine]	1.59 (≈ 3.22 µM)	–	–	–
COc1cc2ncnc(Nc3cccc(Br)c3)c2cc1OC [DP153035, reference compound]	0.99 (≈ 2.75 µM)	–	–	solubility thermodynamic [2]: 20 µg/mL (≈ 55.5 µM); solubility in water (in words) [3]: insolubility in water
Cl.OCCNCC1COc2cc3ncnc(Nc4cccc(I)c4)c3cc2O1 (centres unmarked) [Example 34, 2-[4-(3-iodophenylamine)-[1,4]dioxano[2,3-g]quinazolin-7-ylmethyl]amino ethanol hydrochloride]	–	–	–	Solubility (mg/10 ml of water) [2]: >>1,000 mg/10 ml of water
OCCN(CCO)CC1COc2cc3ncnc(Nc4cccc(Br)c4)c3cc2O1 (centres unmarked) [Example 33, N-[4-(3-bromophenylamine)-[1,4]dioxano[2,3-g]quinazolin-7-ylmethyl]-N-(2-hydroxyethyl)]-2-ethanolamine hydrochloride]	–	0.0449	better inhibitory effect of cancer cell growth than the standard material	A431 GI50 (A431 cancer cell; hydrochloride): 0.67 µg/mL; Solubility (mg/10 ml of water) [2]: >>1,000 mg/10 ml of water
COc1cc2ncnc(Nc3ccc(F)c(Cl)c3)c2cc1OCCCN1CCOCC1 [ZD 1839]	–	–	–	solubility in water (in words) [3]: does not have a high solubility
COC[C@H]1Oc2cc3ncnc(Nc4cccc(Br)c4)c3cc2O[C@@H]1COC [Example 44, (7,8-bismethoxymethyl[1,4]dioxano[2,3-g]quinazolin-4-yl)-(3-bromophenyl)-amine]	2.91 (≈ 6.52 µM)	0.0741	–	–
Cl.Ic1cccc(Nc2ncnc3cc4c(cc23)OCC(CN2CCOCC2)O4)c1 (centres unmarked) [Example 30]	–	–	–	Solubility (mg/10 ml of water) [2]: >>1,000 mg/10 ml of water
Brc1cccc(Nc2ncnc3cc4c(cc23)OC(CN2CCOCC2)CO4)c1 (centres unmarked) [Example 31, (3-bromophenyl)-[7-(morpholin-4-ylmethyl)-[1,4]dioxano[2,3-g]quinazolin-4-yl]amine hydrochloride]	–	0.101	better inhibitory effect of cancer cell growth than the standard material	A431 GI50 (A431 cancer cell; hydrochloride): 0.19 µg/mL; Solubility (mg/10 ml of water) [2]: >>1,000 mg/10 ml of water
OCCNCC1COc2cc3ncnc(Nc4cccc(Br)c4)c3cc2O1 (centres unmarked) [Example 35, 2-[4-(3-bromophenylamine)-[1,4]dioxano[2,3-g]quinazolin-7-ylmethyl]amino ethanol hydrochloride]	–	0.0499	better inhibitory effect of cancer cell growth than the standard material	A431 GI50 (A431 cancer cell; hydrochloride): 0.95 µg/mL; Solubility (mg/10 ml of water) [2]: >>1,000 mg/10 ml of water
Brc1cccc(Nc2ncnc3cc4c(cc23)OC(CN2CCOCC2)CO4)c1 (centres unmarked) [Example 23, (3-bromophenyl)-[7-(morpholine-4-ylmethyl)-[1,4]dioxano[2,3-g]quinazolin-4-yl]-amine]	0.13 (≈ 0.284 µM)	0.0631	–	–
Ic1cccc(Nc2ncnc3cc4c(cc23)OC(CN2CCOCC2)CO4)c1 (centres unmarked) [Example 22, (3-iodophenyl)-[7-(morpholine-4-ylmethyl)-[1,4]dioxano[2,3-g]quinazolin-4-yl]-amine]	0.38 (≈ 0.753 µM)	0.0251	better inhibitory effect of cancer cell growth than the standard material	–
OCCN(CCO)CC1COc2cc3ncnc(Nc4cccc(Br)c4)c3cc2O1 (centres unmarked) [Example 25]	0.61 (≈ 1.28 µM)	0.1	–	–
CN1CCN(CC2COc3cc4ncnc(Nc5cccc(Br)c5)c4cc3O2)CC1 (centres unmarked) [Example 28, (3-bromophenyl)-[7-(4-methylpiperazin-1-yl)methyl-[1,4]dioxano[2,3-g]quinazolin-4-yl]amine]	0.22 (≈ 0.468 µM)	0.00891	better inhibitory effect of cancer cell growth than the standard material	–
CC(C)[C@H](CO)NCC1COc2cc3ncnc(Nc4cccc(Br)c4)c3cc2O1 (some centres unmarked) [Example 29]	1.9 (≈ 4.01 µM)	> 0.211	–	–
CN1CCN(CC2COc3cc4ncnc(Nc5cccc(I)c5)c4cc3O2)CC1.Cl (centres unmarked) [Example 36, (3-iodophenyl)-[7-(4-methylpiperazin-1-yl)methyl-[1,4]dioxano[2,3-g]quinazolin-4-yl]amine hydrochloride]	–	–	–	Solubility (mg/10 ml of water) [2]: >>1,000 mg/10 ml of water
COCC1COc2cc3ncnc(Nc4ccc(C)c(Cl)c4)c3cc2O1 (centres unmarked) [Example 16, (3-chloro-4-methylphenyl)-(7-methoxymethyl-[1,4]-dioxano[2,3-g]quinazolin-4-yl)-amine]	–	–	–	solubility thermodynamic [2]: 457 µg/mL (≈ 1230 µM)
CN1CCN(CC2COc3cc4ncnc(Nc5cccc(Br)c5)c4cc3O2)CC1 (centres unmarked) [Example 37, (3-bromophenyl)-[7-(4-methylpiperazin-1-yl)methyl-[1,4]dioxano[2,3-g]quinazolin-4-yl]amine hydrochloride]	–	0.123	–	A431 GI50 (A431 cancer cell; hydrochloride): 0.38 µg/mL
C#Cc1cccc(Nc2ncnc3cc4c(cc23)O[C@H](COC)[C@@H](COC)O4)c1 [Example 48, (7,8-bismethoxymethyl[1,4]dioxano[2,3-g]quinazolin-4-yl)-[3-(ethynyl)phenyl]-amine]	1.89 (≈ 4.83 µM)	> 0.255	–	–
